{"source": "patent US20250376689A1", "about": "“OLIGONUCLEOTIDES HAVING 6-THIO-2'-DEOXYGUANOSINE RESIDUES AND USES THEREOF” (City of Hope, priority 2021, published 2025)", "key": {"activated T cells": {"test_system": "activated T cells", "assay": "Viability of CD3/CD28-activated human T cells (flow cytometry)", "assay_type": "cell-based", "details": "human T cells activated with CD3/CD28 beads and IL-2", "method": "(§1) PMBCs from 3 healthy donors were seeded at a density of 10^7/mL and treated with CpG alone, 6tdG alone, combination of CpG and 6tdG, CpG(6tdG)6-p, CpG(6tdG)5G for 2 days. Cell apoptosis was measured using flow cytometry after staining for Annexin V and 7AAD. Representative results obtained from 3 independent experiments; means±SEM (n=3). (FIG. 4B) Human T cells isolated from 3 healthy donor PBMCs using negative selection were activated with CD3/CD28 beads in the presence of 20 ng/mL human IL-2 to induce proliferation. After activation, T cells were incubated in the presence of CpG alone, 6tdG alone, combination of CpG and 6tdG, CpG(6tdG)6-p or CpG(6tdG)5G for the indicated times before subject to viability analysis in flow cytometry. (FIG. 4C) Activated and proliferating T cells, but not naïve/resting T cells, have high levels of telomerase activity. The telomerase activity was assayed using TRAPeze kit (EMD Millipore), a telomerase repeated amplification protocol, and PCR products were qualitatively analyzed in a PAGE gel."}, "[1]": {"test_system": "resting human lymphocytes", "assay": "Apoptosis/viability of resting human PBMCs (Annexin V/7AAD flow cytometry)", "assay_type": "cell-based", "details": "PBMCs from 3 healthy donors, treated 2 days", "method": "as §1"}, "[2]": {"test_system": "telomerase-negative normal cells", "details": "cited from earlier work"}, "[3]": {"test_system": "TBK1 signaling downstream from STING", "assay": "Western blot of activated and total TBK1 in DCs co-cultured with pretreated RM9 cells", "assay_type": "cell-based, mouse", "method": "FIG. 8A: RM9 prostate cancer cells were treated with a combination of 5 μM 6tdG and 1 μM CpG, 1 μM CpG(6tdG)6-p or PBS overnight, washed and incubated for the additional 3 days in fresh media. The dying cancer cells were then harvested and co-cultured for 18 h with freshly isolated, mouse primary splenic DC at a ratio of 1:10. The percentages of activated DCs (CD11c+MHC II+/CD80+ or CD86+) were analyzed by flow cytometry. FIG. 8B: Bone-marrow derived dendritic cells (BMDCs) were co-cultured with cancer cells in the presence of CpG alone, 6tdG alone, combination of CpG and 6tdG, or CpG(6tdG)6-p for 3 days. The expression of IFN-β mRNA was analyzed by real-time qPCR. Shown are results from three independent experiments; means±SEM (n=3); ****P<0.0001; *P<0.05 compared to the untreated group. FIG. 8C: TBK1 signaling downstream from STING is activated in primary mouse DCs co-cultured with RM9 cells pretreated using 6tdG alone, in combination with CpG or by CpG-(6tdG)6-p oligomer. The protein content of dendritic cells was analyzed using western blot to evaluate levels of activated and total TBK1. The protein levels were normalized to beta-actin and quantified densitometrically."}}}
{"molecule": "Nc1nc2c(ncn2[C@H]2C[C@H](O)[C@@H](CO)O2)c(=S)[nH]1", "note": "[6tdG, 6-thio-2′-deoxyguanosine]", "values": [{"measurement": "cytotoxicity to activated T cells", "setting": "activated T cells", "value": "cytotoxic to activated T cells"}, {"measurement": "viability of resting human lymphocytes", "setting": "[1]", "value": "Neither 6tdG nor CpG-6tdG oligomers affect viability"}, {"measurement": "cytotoxic effects on telomerase-negative normal cells", "setting": "[2]", "value": "minimal cytotoxic effects"}, {"measurement": "TBK1 signaling in primary mouse DCs", "setting": "[3]", "value": "activated"}]}
